Laboratory results: patent publication US10966427B2, “3-pyridyl oxyanilide compound and use therefor” (SUMITOMO CHEMICAL COMPANY, LIMITED, priority 2017, dated 2021)

Columns and labels:
Assay type in all cases: in vivo
[1] = system: soybean; test: Test Examples 4 and 5, Comparative Example 1: foliar spray phytotoxicity against useful plants; settings: second to third leaf stages, sprayed, 63 g/ha; for Phytotoxicity against Soybean: greenhouse 16 days
Description: Here “untreated group” represents a group where a similar treatment procedure to that of the treated group except not using the test compound is done. One point one nine (1.19) mg of the present compound was dissolved 1 mL of a DMF solution containing 2% polyoxyethylene sorbitan monolaurate, and then 18 mL of water was added thereto. The mixture was sprayed uniformly to soybean in the second to third leaf stages so that the applied dose was made 63 g/ha. Thereafter, the plants were cultivated in a greenhouse for 7 days, and the phytotoxicity against useful plants was assessed. […] Also, 1.19 mg of the present compound was dissolved 1 mL of a DMF solution containing 2% polyoxyethylene sorbitan monolaurate, and then 18 mL of water was added thereto. The mixture was sprayed uniformly to soybean in the second to third leaf stages so that the applied dose was made 63 g/ha. Thereafter, the plants were cultivated in a greenhouse for 16 days, and the phytotoxicity against useful plants was assessed. The test was conducted similarly to the method described in Test Example 5 except for using a compound represented by the following formula (A): […]

[2] = system: Digitaria ciliaris; test: Test Examples 2 and 5, Comparative Example 1: foliar spray herbicide efficacy; settings: second to third leaf stages, sprayed, 63 g/ha; for Herbicide efficacy against digitaria ciliaris: greenhouse 16 days
Description: Here “untreated group” represents a group where a similar treatment procedure to that of the treated group except not using the test compound is done. One point one nine (1.19) mg of the present compound was dissolved 1 mL of a DMF solution containing 2% polyoxyethylene sorbitan monolaurate, and then 18 mL of water was added thereto. The mixture was sprayed uniformly to Digitaria ciliaris in the second to third leaf stages so that the applied dose was made 63 g/ha. Thereafter, the plants were cultivated in a greenhouse for 7 days, and the herbicide efficacy was assessed. […] One point one nine (1.19) mg of the present compound was dissolved 1 mL of a DMF solution containing 2% polyoxyethylene sorbitan monolaurate, and then 18 mL of water was added thereto. The mixture was sprayed uniformly to Digitaria ciliaris in the second to third leaf stages so that the applied dose was made 63 g/ha. Thereafter, the plants were cultivated in a greenhouse for 16 days, and the herbicide efficacy was assessed. The test was conducted similarly to the method described in Test Example 5 except for using a compound represented by the following formula (A): […]

[3] = system: Echinochloa crus-galli; test: Test Example 1: foliar spray herbicide efficacy; settings: second to third leaf stages, sprayed, 63 g/ha, greenhouse for days (number not given)
Description: Here “untreated group” represents a group where a similar treatment procedure to that of the treated group except not using the test compound is done. One point one nine (1.19) mg of the present compound was dissolved 1 mL of a DMF solution containing 2% polyoxyethylene sorbitan monolaurate, and then 18 mL of water was added thereto. The mixture was sprayed uniformly to Echinochloa crus-galli in the second to third leaf stages so that the applied dose was made 63 g/ha. Thereafter, the plants were cultivated in a greenhouse for days, and the herbicide efficacy was assessed.

[4] = system: Leptochloa chinensis; test: Test Example 3: pot spray followed by flooding, herbicide efficacy; settings: first leaf stage, pot sprayed, 250 g/ha, flooded to 3 cm next day, greenhouse 20 days
Description: Here “untreated group” represents a group where a similar treatment procedure to that of the treated group except not using the test compound is done. Leptochloa chinensis seeds were seeded into a pot having a diameter of 9 cm and a death of 10 cm that was filled with steam-sterilized soil, and the plants were cultivated in a greenhouse until an emergence of the first leaf stage. Next, 4.75 mg of the present compound was dissolved into a 1 mL of DMF solution containing 2% polyoxyethylene sorbitan monolaurate, and then 18 mL of water was added thereto. The mixture was sprayed uniformly to the pot so that the applied dose was made 250 g/ha. After the pot was flooded to a depth of 3 cm on next day, the plants were cultivated in a greenhouse for 20 days, and the herbicide efficacy was assessed.

Row | SMILES | Phytotoxicity against Soybean [1] | Herbicide efficacy against digitaria ciliaris [2] | score as phytotoxicity ([1]; soybean, greenhouse 7 days) | score as herbicide efficacy ([2]; Digitaria ciliaris, greenhouse 7 days) | score as herbicide efficacy [3] | score as herbicide efficacy [4]
1 | Cn1c(C(F)(F)F)cc(=O)n(-c2cc(Oc3cccnc3OCC(=O)Oc3ccccc3)c(Cl)cc2F)c1=O [Compound (A), reference compound] | 10 (100% of phytotoxicity) | 10 (100% of herbicide efficacy) | – | – | – | –
2 | CCOC(=O)COc1ncccc1Oc1cc(NC(=O)COc2ncccc2Oc2cc(-n3c(=O)cc(C(F)(F)F)n(C)c3=O)c(F)cc2Cl)c(F)cc1Cl [Present compound] | 1 (10% to 19% of phytotoxicity) | 10 (100% of herbicide efficacy) | 2 (20% to 29% of phytotoxicity) | 9 (90% to 99% of herbicide efficacy) | 9 (90% to 99% of herbicide efficacy) | 10 (100% of herbicide efficacy)
